Assay results taken from US8859584B2, “TRPV1 antagonists” (AbbVie Inc., priority 2011, dated 2014).
pIC50: −log10 of the molar value.

Columns and labels:
[1] = biological target: T1, human TRPV1 (Homo sapiens, UniProt Q8NER1); assay: Capsaicin Activation Assay (FLIPR intracellular Ca2+, recombinant HEK293 cells); format: cell-based; settings: recombinant HEK293 cells expressing hTRPV1; 50 nM capsaicin; read-out: human TRPV1 capsaicin IC50
T1 construct: expressed in transfected cells

[2] = tested on: rats; assay: Sodium Iodoacetate-Induced Knee Joint Osteoarthritic Pain Model (hind limb grip force); format: in vivo; settings: rat, 1 hour after administration, 20 days after sodium iodoacetate, read-out: % effect (% return to normalcy of hind limb grip force); for inhibition in vivo at 30 µmol/kg: 30 μmol/kg po single dose
Procedure: (v) Sodium Iodoacetate-Induced Knee Joint Osteoarthritic Pain Model
Unilateral knee joint osteoarthritis was induced in the rats by a single intra-articular (i.a.) injection of sodium iodoacetate (3 mg in 0.05 mL sterile isotonic saline) into the right knee joint cavity under light isoflurane anesthesia using a 26G needle. […] Pain behavioral assessment of hind limb grip force was conducted by recording the maximum compressive force exerted on the hind limb strain gauge setup, in a commercially available grip force measurement system (Columbus Instruments, Columbus, Ohio). The grip force data was converted to a maximum hindlimb cumulative compressive force (CFmax) (gram force)/kg body weight for each animal. The analgesic effects of test compounds were determined 20 days following the i.a. injection of sodium iodoacetate. The vehicle control group for each compound being tested was assigned 0% whereas the age matched naïve group was assigned as being 100% (normal). The % effect for each dose group was then expressed as % return to normalcy compared to the naïve group. Test compounds were administered orally in 10% ethanol/20% Tween 80/70% polyethylene glycol-400 vehicle at a volume of 2 mL/kg. The assessment of the analgesic effects of test compounds was made 1 hour following oral administration. The assessment of the analgesic effects of test compounds can be made following a single dose or following repeated administration wherein the frequency of dosing is 1 to 2 times daily. The duration of such repeated daily dosing may last for any time greater than one day. A typical duration of repeated daily dosing is about 5 days to about 12 days.

[3] = biological target: T1, human TRPV1; assay: Acid Activation Assay (pH 5.0, FLIPR intracellular Ca2+, recombinant HEK293 cells); format: cell-based; settings: percentage of maximal pH 5.0-induced response remaining; HEK293 hTRPV1; max concentration 37.5 μM
Method in brief: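 HEK293 cells stably expressing recombinant hTRPV1 were loaded with calcium dye for 90-120 min at 25° C and pre-treated with compound for 3 min before a pH 5.0 (DPBS/MES) challenge. Peak FLIPR fluorescence over baseline is given as percentage of the maximal pH 5.0-induced response.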

T1 sequence (Q8NER1 whole entry): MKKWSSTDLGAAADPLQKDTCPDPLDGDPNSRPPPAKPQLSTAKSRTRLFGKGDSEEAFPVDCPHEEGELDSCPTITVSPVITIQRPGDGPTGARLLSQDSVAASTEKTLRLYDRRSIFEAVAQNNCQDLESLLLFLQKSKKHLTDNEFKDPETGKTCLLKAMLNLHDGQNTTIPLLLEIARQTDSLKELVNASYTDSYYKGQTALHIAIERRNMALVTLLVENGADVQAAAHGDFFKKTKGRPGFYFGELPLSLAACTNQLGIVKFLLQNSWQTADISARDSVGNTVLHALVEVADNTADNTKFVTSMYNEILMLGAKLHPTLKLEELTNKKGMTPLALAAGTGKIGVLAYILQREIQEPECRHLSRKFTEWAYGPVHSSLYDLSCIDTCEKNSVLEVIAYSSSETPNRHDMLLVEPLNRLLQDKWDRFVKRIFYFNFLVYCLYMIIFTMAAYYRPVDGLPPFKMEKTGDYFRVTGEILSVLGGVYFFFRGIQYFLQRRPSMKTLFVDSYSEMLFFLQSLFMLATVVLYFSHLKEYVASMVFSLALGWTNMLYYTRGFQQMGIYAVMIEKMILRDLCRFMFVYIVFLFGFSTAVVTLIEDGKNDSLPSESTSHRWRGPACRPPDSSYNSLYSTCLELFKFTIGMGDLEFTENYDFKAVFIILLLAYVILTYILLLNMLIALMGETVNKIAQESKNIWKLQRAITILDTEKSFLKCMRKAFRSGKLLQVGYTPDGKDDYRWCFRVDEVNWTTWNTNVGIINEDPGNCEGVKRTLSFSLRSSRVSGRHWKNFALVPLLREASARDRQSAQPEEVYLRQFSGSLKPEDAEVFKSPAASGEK

SMILES: C[C@]1(CF)C[C@@H](NC(=O)Nc2cccc3c2C[C@H](O)C3)c2ccc(C(F)(F)F)cc2O1 [Example 43, 1-[(2R,4R)-2-(fluoromethyl)-2-methyl-7-(trifluoromethyl)-3,4-dihydro-2H-chromen-4-yl]-3-[(2R)-2-hydroxy-2,3-dihydro-1H-inden-4-yl]urea]
- pIC50 [1]: 7.74
- inhibition in vivo at 30 µmol/kg [2]: 38%
- human TRPV1 H+ (max % remain) [3]: 48%

SMILES: CC1(C)C[C@@H](NC(=O)Nc2cccc3c2C[C@H](O)C3)c2ccc(F)cc2O1 [Example 5, 1-[(4R)-7-fluoro-2,2-dimethyl-3,4-dihydro-2H-chromen-4-yl]-3-[(2R)-2-hydroxy-2,3-dihydro-1H-inden-4-yl]urea]
- pIC50 [1]: 7.49
- inhibition in vivo at 100 µmol/kg ([2]; 100 μmol/kg po single dose): 57%
- human TRPV1 H+ (max % remain) [3]: 76%

SMILES: CC1(C)C[C@@H](NC(=O)Nc2cccc3c2C[C@H](O)C3)c2ccc(Cl)cc2O1 [Example 13, 1-[(4R)-7-chloro-2,2-dimethyl-3,4-dihydro-2H-chromen-4-yl]-3-[(2R)-2-hydroxy-2,3-dihydro-1H-inden-4-yl]urea]
- pIC50 [1]: 7.55
- inhibition in vivo at 30 µmol/kg [2]: 52%
- human TRPV1 H+ (max % remain) [3]: 62%

SMILES: O=C(Nc1cccc2c1C[C@H](O)C2)N[C@@H]1CCc2cc(C(F)(F)F)ccc21 [Example 40, 1-[(2R)-2-hydroxy-2,3-dihydro-1H-inden-4-yl]-3-[(1R)-5-(trifluoromethyl)-2,3-dihydro-1H-inden-1-yl]urea]
- pIC50 [1]: 8.15
- inhibition in vivo at 30 µmol/kg [2]: 57%
- human TRPV1 H+ (max % remain) [3]: 30%

SMILES: CCC1(CC)C[C@@H](NC(=O)Nc2cccc3c2C[C@H](O)C3)c2ccc(Cl)cc2O1 [Example 54, 1-[(4R)-7-chloro-2,2-diethyl-3,4-dihydro-2H-chromen-4-yl]-3-[(2R)-2-hydroxy-2,3-dihydro-1H-inden-4-yl]urea]
- pIC50 [1]: 7.12
- human TRPV1 H+ (max % remain) [3]: 59%

SMILES: O=C(Nc1c(F)ccc2c1C[C@@H](O)C2)N[C@@H]1CC(CF)(CF)Oc2cc(Cl)ccc21 [Example 176, 1-[(4R)-7-chloro-2,2-bis(fluoromethyl)-3,4-dihydro-2H-chromen-4-yl]-3-[(2S)-5-fluoro-2-hydroxy-2,3-dihydro-1H-inden-4-yl]urea]
- pIC50 [1]: 6.68
- human TRPV1 H+ (max % remain) [3]: 4%

SMILES: CC1(C)C[C@@H](NC(=O)Nc2cccc3c2C[C@@H](O)C3)c2ccc(OC(F)(F)F)cc2O1 [Example 72, 1-[(4R)-2,2-dimethyl-7-(trifluoromethoxy)-3,4-dihydro-2H-chromen-4-yl]-3-[(2S)-2-hydroxy-2,3-dihydro-1H-inden-4-yl]urea]
- pIC50 [1]: 7.57
- human TRPV1 H+ (max % remain) [3]: 0%

SMILES: CCC1(CC)C[C@@H](NC(=O)Nc2cccc3c2C[C@H](O)C3)c2cccc(F)c2O1 [Example 48, 1-[(4R)-2,2-diethyl-8-fluoro-3,4-dihydro-2H-chromen-4-yl]-3-[(2R)-2-hydroxy-2,3-dihydro-1H-inden-4-yl]urea]
- pIC50 [1]: 7.62
- human TRPV1 H+ (max % remain) [3]: 89%

SMILES: C[C@]1(CF)C[C@@H](NC(=O)Nc2cccc3c2C[C@H](O)C3)c2ccc(Cl)cc2O1 [Example 15, 1-[(2R,4R)-7-chloro-2-(fluoromethyl)-2-methyl-3,4-dihydro-2H-chromen-4-yl]-3-[(2R)-2-hydroxy-2,3-dihydro-1H-inden-4-yl]urea]
- pIC50 [1]: 7.22
- human TRPV1 H+ (max % remain) [3]: 63%

SMILES: CC1(C)C[C@@H](NC(=O)Nc2cccc3c2C[C@@H](O)C3)c2cccc(F)c2O1 [Example 71, 1-[(4R)-8-fluoro-2,2-dimethyl-3,4-dihydro-2H-chromen-4-yl]-3-[(2S)-2-hydroxy-2,3-dihydro-1H-inden-4-yl]urea]
- pIC50 [1]: 6.28
- human TRPV1 H+ (max % remain) [3]: 52%

SMILES: O=C(Nc1cccc2c1C[C@H](O)C2)N[C@@H]1CCOc2cc(F)ccc21 [Example 65, 1-[(4R)-7-fluoro-3,4-dihydro-2H-chromen-4-yl]-3-[(2R)-2-hydroxy-2,3-dihydro-1H-inden-4-yl]urea]
- pIC50 [1]: 6.57
- human TRPV1 H+ (max % remain) [3]: 73%

SMILES: CC(C)(C)c1ccc2c(c1)CC[C@H]2NC(=O)Nc1cccc2c1C[C@H](O)C2 [Example 50, 1-[(1R)-5-tert-butyl-2,3-dihydro-1H-inden-1-yl]-3-[(2R)-2-hydroxy-2,3-dihydro-1H-inden-4-yl]urea]
- pIC50 [1]: 7.49
- human TRPV1 H+ (max % remain) [3]: 69%

SMILES: O=C(Nc1cccc2c1C[C@H](O)C2)N[C@@H]1CC(CF)(CF)Oc2c(Cl)cccc21 [Example 2, 1-[(4R)-8-chloro-2,2-bis(fluoromethyl)-3,4-dihydro-2H-chromen-4-yl]-3-[(2R)-2-hydroxy-2,3-dihydro-1H-inden-4-yl]urea]
- pIC50 [1]: 6.80
- human TRPV1 H+ (max % remain) [3]: 80%

SMILES: CC1(C)C[C@@H](NC(=O)Nc2cccc3c2C[C@@H](O)C3)c2ccc(F)cc2O1 [Example 32, 1-[(4R)-7-fluoro-2,2-dimethyl-3,4-dihydro-2H-chromen-4-yl]-3-[(2S)-2-hydroxy-2,3-dihydro-1H-inden-4-yl]urea]
- pIC50 [1]: 7.13
- human TRPV1 H+ (max % remain) [3]: 33%

SMILES: CC1(C)C[C@@H](NC(=O)Nc2ccc(F)c3c2C[C@H](O)C3)c2ccc(C(F)(F)F)cc2O1 [Example 140, 1-[(4R)-2,2-dimethyl-7-(trifluoromethyl)-3,4-dihydro-2H-chromen-4-yl]-3-[(2S)-7-fluoro-2-hydroxy-2,3-dihydro-1H-inden-4-yl]urea]
- pIC50 [1]: 7.24
- human TRPV1 H+ (max % remain) [3]: 2%

SMILES: O=C(Nc1cccc2c1C[C@H](O)C2)N[C@@H]1CC2(CCC2)Oc2cc(C(F)(F)F)ccc21 [Example 42, 1-[(2R)-2-hydroxy-2,3-dihydro-1H-inden-4-yl]-3-[(4R)-7-(trifluoromethyl)-3,4-dihydrospiro[chromene-2,1′-cyclobutan]-4-yl]urea]
- pIC50 [1]: 7.27
- human TRPV1 H+ (max % remain) [3]: 20%

SMILES: O=C(Nc1cccc2c1C[C@H](O)C2)N[C@@H]1CC(CF)(CF)Oc2cc(Br)ccc21 [Example 45, 1-[(4R)-7-bromo-2,2-bis(fluoromethyl)-3,4-dihydro-2H-chromen-4-yl]-3-[(2R)-2-hydroxy-2,3-dihydro-1H-inden-4-yl]urea]
- pIC50 [1]: 7.37
- human TRPV1 H+ (max % remain) [3]: 58%

SMILES: CN1CC[C@@H](NC(=O)Nc2ccc(F)c3c2C[C@H](O)C3)c2ccc(C(F)(F)F)cc21 [Example 148, 1-[(2S)-7-fluoro-2-hydroxy-2,3-dihydro-1H-inden-4-yl]-3-[(4R)-1-methyl-7-(trifluoromethyl)-1,2,3,4-tetrahydroquinolin-4-yl]urea]
- pIC50 [1]: 5.51
- human TRPV1 H+ (max % remain) [3]: 21%

SMILES: CC1(C(F)F)C[C@@H](NC(=O)Nc2cccc3c2C[C@H](O)C3)c2cc(Cl)ccc2O1 (stereo partly drawn) [Example 61, 1-[(4R)-6-chloro-2-(difluoromethyl)-2-methyl-3,4-dihydro-2H-chromen-4-yl]-3-[(2R)-2-hydroxy-2,3-dihydro-1H-inden-4-yl]urea]
- pIC50 [1]: 7.70
- human TRPV1 H+ (max % remain) [3]: 69%

SMILES: O=C(Nc1cccc2c1C[C@H](O)C2)N[C@@H]1CC2(CCC2)Oc2ccccc21 [Example 22, 1-[(4R)-3,4-dihydrospiro[chromene-2,1′-cyclobutan]-4-yl]-3-[(2R)-2-hydroxy-2,3-dihydro-1H-inden-4-yl]urea]
- pIC50 [1]: 7.11
- human TRPV1 H+ (max % remain) [3]: 73%

SMILES: CC1(C)C[C@@H](NC(=O)Nc2ccc(F)c3c2C[C@H](O)C3)c2ccc(Cl)cc2O1 [Example 149, 1-[(4R)-7-chloro-2,2-dimethyl-3,4-dihydro-2H-chromen-4-yl]-3-[(2S)-7-fluoro-2-hydroxy-2,3-dihydro-1H-inden-4-yl]urea]
- pIC50 [1]: 6.27
- human TRPV1 H+ (max % remain) [3]: 2%

SMILES: CC1(C)C[C@H](NC(=O)Nc2cccc3c2C[C@@H](O)C3)c2cc(F)ccc2O1 [Example 103, 1-[(4S)-6-fluoro-2,2-dimethyl-3,4-dihydro-2H-chromen-4-yl]-3-[(2S)-2-hydroxy-2,3-dihydro-1H-inden-4-yl]urea]
- pIC50 [1]: 4.55
- human TRPV1 H+ (max % remain) [3]: 99%

SMILES: O=C(Nc1cccc2c1CC(O)C2)NC1CC(c2ccc(Cl)cc2)Oc2ccccc21 (stereo not drawn) [Example 117, 1-[2-(4-chlorophenyl)-3,4-dihydro-2H-chromen-4-yl]-3-(2-hydroxy-2,3-dihydro-1H-inden-4-yl)urea]
- pIC50 [1]: 6.89
- human TRPV1 H+ (max % remain) [3]: 45%

SMILES: COc1ccc(C2COc3ccccc3C2NC(=O)Nc2cccc3c2CC(O)C3)cc1 (stereo not drawn) [Example 116, 1-(2-hydroxy-2,3-dihydro-1H-inden-4-yl)-3-[3-(4-methoxyphenyl)-3,4-dihydro-2H-chromen-4-yl]urea]
- pIC50 [1]: 5.39
- human TRPV1 H+ (max % remain) [3]: 94%

SMILES: COc1ccc2c(c1)OCC(Cc1ccc(Cl)c(Cl)c1)C2NC(=O)Nc1cccc2c1CC(O)C2 (stereo not drawn) [Example 114, 1-[3-(3,4-dichlorobenzyl)-7-methoxy-3,4-dihydro-2H-chromen-4-yl]-3-(2-hydroxy-2,3-dihydro-1H-inden-4-yl)urea]
- pIC50 [1]: 6.14
- human TRPV1 H+ (max % remain) [3]: 43%
